Test results as given in ChEMBL document CHEMBL1130716, “The solid phase synthesis of a series of tri-substituted hydantoin ligands for the somatostatin SST5 receptor” (Bioorg Med Chem Lett, 1998).
Activity calls are given as the source filed them. The calls are words filed in the database; no cut-off is given here.

What was measured:
Format in all cases: cell-based
[1] = molecular target: Somatostatin receptor type 2 (Homo sapiens) (UniProt P30874); test: Tested for inhibitory activity at human recombinant sst 2 receptors expressed in CHO-K1 cells; No inhibition showed more than 50% inhibition
[2] = molecular target: T1, Somatostatin receptor type 5 (Homo sapiens, UniProt P35346); test: Compound was tested for inhibition of specific [125I]-Tyr11-SRIF binding to human recombinant SST5 (somatostatin) receptor expressed in CHO-K1 cells at 10e-6 M concentration
[3] = molecular target: T1, Somatostatin receptor type 5; test: Compound was tested for inhibition of specific [125I]Tyr11-SRIF binding to human recombinant SST5 (somatostatin) receptor expressed in CHO-K1 cells

Sequence of Somatostatin receptor type 2 (Homo sapiens) (P30874 whole entry): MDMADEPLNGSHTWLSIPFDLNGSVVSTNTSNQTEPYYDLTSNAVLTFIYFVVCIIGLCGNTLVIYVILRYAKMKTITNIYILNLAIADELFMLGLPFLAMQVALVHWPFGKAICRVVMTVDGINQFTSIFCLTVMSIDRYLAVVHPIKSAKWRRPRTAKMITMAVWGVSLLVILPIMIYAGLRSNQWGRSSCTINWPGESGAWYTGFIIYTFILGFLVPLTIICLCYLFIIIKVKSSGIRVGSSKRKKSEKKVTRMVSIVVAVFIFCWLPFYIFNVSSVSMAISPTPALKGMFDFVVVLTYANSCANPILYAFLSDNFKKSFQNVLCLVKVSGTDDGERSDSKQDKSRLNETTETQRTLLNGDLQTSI
T1 sequence (P35346 whole entry): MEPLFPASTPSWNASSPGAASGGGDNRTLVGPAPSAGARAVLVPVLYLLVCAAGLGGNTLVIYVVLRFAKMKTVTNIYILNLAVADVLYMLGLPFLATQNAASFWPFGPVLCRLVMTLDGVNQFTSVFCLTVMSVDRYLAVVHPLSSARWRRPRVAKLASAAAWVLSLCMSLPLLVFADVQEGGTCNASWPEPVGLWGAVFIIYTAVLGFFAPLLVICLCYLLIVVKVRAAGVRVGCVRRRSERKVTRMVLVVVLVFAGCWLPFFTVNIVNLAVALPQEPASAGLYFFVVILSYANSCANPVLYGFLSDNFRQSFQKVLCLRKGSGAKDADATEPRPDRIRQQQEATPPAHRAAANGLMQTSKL

Activity [1] | inhibition [2] [%] | IC50 [3] [nM] | SMILES
inactive | 49 |  | O=C1[C@H](Cc2cccc3ccccc23)N(CCCCc2ccccc2)C(=O)N1CCN1CCCC1
inactive |  | 316 | O=C1[C@H](Cc2ccc(OCc3ccccc3)cc2)N(CCC#Cc2ccccc2)C(=O)N1CCN1CCCC1
inactive | 60 |  | COc1ccc(CCCCN2C(=O)N(CCN3CCCC3)C(=O)[C@@H]2Cc2cccc3ccccc23)cc1
inactive |  | 1410 | NCCCC[C@@H](NC(=O)CC1SC(c2ccccc2)N([C@@H](Cc2ccc(-c3ccccc3)cc2)C(N)=O)C1=O)C(N)=O (some centres undefined)
inactive |  | 398 | O=C1[C@H](Cc2cccc3ccccc23)N(CCC#Cc2ccccc2)C(=O)N1CCN1CCCC1
inactive |  | 501 | COc1ccc(CCCCN2C(=O)N(CCN3CCCC3)C(=O)[C@@H]2Cc2ccc(OCc3ccccc3)cc2)cc1
inactive |  | 316 | O=C1[C@H](Cc2ccc(OCc3ccccc3)cc2)N(CCCCc2ccccc2)C(=O)N1CCN1CCCC1
